Reference: PubChem BioAssay (NCI)
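Dose response: 5 concentrations. Exposure: 48 h. Format: 96-well plates. Endpoint: linear interpolation; highest concentration if not reached. GI50 marks 50% less growth. TGI: concentration producing complete growth inhibition.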

Key:
Assay in all cases: growth of human tumour cells (NCI), 48 h
786-0 renal = system: 786-0 renal
A498 renal = system: A498 renal
A549 NSCLC = system: A549 NSCLC
ACHN renal = system: ACHN renal
BT-549 breast = system: BT-549 breast
CAKI-1 renal = system: CAKI-1 renal
CCRF-CEM leukemia = system: CCRF-CEM leukemia
COLO 205 colon = system: COLO 205 colon
DU-145 prostate = system: DU-145 prostate
HCC-2998 colon = system: HCC-2998 colon
HCT-116 colon = system: HCT-116 colon
HCT-15 colon = system: HCT-15 colon
HOP-62 NSCLC = system: HOP-62 NSCLC
HOP-92 NSCLC = system: HOP-92 NSCLC
HS 578T breast = system: HS 578T breast
HT29 colon = system: HT29 colon
IGROV1 ovarian = system: IGROV1 ovarian
K-562 leukemia = system: K-562 leukemia
KM12 colon = system: KM12 colon
LOX IMVI melanoma = system: LOX IMVI melanoma
M14 melanoma = system: M14 melanoma
MALME-3M melanoma = system: MALME-3M melanoma
MCF7 breast = system: MCF7 breast
MDA-MB-231 breast = system: MDA-MB-231 breast
MDA-MB-435 = system: MDA-MB-435
MOLT-4 leukemia = system: MOLT-4 leukemia
NCI-H226 lung = system: NCI-H226 lung
NCI-H23 lung = system: NCI-H23 lung
NCI-H460 lung = system: NCI-H460 lung
NCI-H522 lung = system: NCI-H522 lung
NCI/ADR-RES ovarian = system: NCI/ADR-RES ovarian
OVCAR-3 ovarian = system: OVCAR-3 ovarian
OVCAR-4 ovarian = system: OVCAR-4 ovarian
OVCAR-5 ovarian = system: OVCAR-5 ovarian
OVCAR-8 ovarian = system: OVCAR-8 ovarian
PC-3 prostate = system: PC-3 prostate
RPMI-8226 leukemia = system: RPMI-8226 leukemia
RXF 393 renal = system: RXF 393 renal
SF-268 CNS = system: SF-268 CNS
SF-539 CNS = system: SF-539 CNS
SK-MEL-2 melanoma = system: SK-MEL-2 melanoma
SK-MEL-28 melanoma = system: SK-MEL-28 melanoma
SK-MEL-5 melanoma = system: SK-MEL-5 melanoma
SK-OV-3 ovarian = system: SK-OV-3 ovarian
SN12C renal = system: SN12C renal
SNB-19 CNS = system: SNB-19 CNS
SNB-75 CNS = system: SNB-75 CNS
SR leukemia = system: SR leukemia
SW-620 colon = system: SW-620 colon
T-47D breast = system: T-47D breast
TK-10 renal = system: TK-10 renal
UACC-62 melanoma = system: UACC-62 melanoma
UO-31 renal = system: UO-31 renal

In the case of `Cc1ccc2cc3c(cc(C)c4ccccc43)c3c2c1CC3`, the GI50 (786-0 renal) is reported as > 100 µM, the TGI (786-0 renal) is reported as > 100 µM and the GI50 (A498 renal) is reported as 76 µM. The TGI (A498 renal) was > 100 µM, the GI50 (A549 NSCLC) was > 100 µM and the TGI (A549 NSCLC) was > 100 µM. The GI50 (ACHN renal) was 60.1 µM, the TGI (ACHN renal) was > 100 µM and the GI50 (BT-549 breast) was > 100 µM. For the same compound, the TGI (BT-549 breast) was > 100 µM, the GI50 (CAKI-1 renal) was > 100 µM and the TGI (CAKI-1 renal) was > 100 µM. For the same compound, the GI50 (CCRF-CEM leukemia) was > 100 µM, the TGI (CCRF-CEM leukemia) was > 100 µM and the GI50 (COLO 205 colon) was > 100 µM. For the same compound, the TGI (COLO 205 colon) was > 100 µM, the GI50 (DU-145 prostate) was > 100 µM and the TGI (DU-145 prostate) was > 100 µM. For the same compound, the GI50 (HCC-2998 colon) was > 100 µM, the TGI (HCC-2998 colon) was > 100 µM and the GI50 (HCT-116 colon) was > 100 µM. For the same compound, the TGI (HCT-116 colon) was > 100 µM, the GI50 (HCT-15 colon) was > 100 µM and the TGI (HCT-15 colon) was > 100 µM. For the same compound, the GI50 (HOP-62 NSCLC) was 58.8 µM, the TGI (HOP-62 NSCLC) was > 100 µM and the GI50 (HOP-92 NSCLC) was 17.4 µM. The TGI (HOP-92 NSCLC) was 82.3 µM, the GI50 (HS 578T breast) was 89.1 µM and the TGI (HS 578T breast) was > 100 µM. For the same compound, the GI50 (HT29 colon) was > 100 µM, the TGI (HT29 colon) was > 100 µM and the GI50 (IGROV1 ovarian) was > 100 µM. The TGI (IGROV1 ovarian) was > 100 µM, the GI50 (K-562 leukemia) was > 100 µM and the TGI (K-562 leukemia) was > 100 µM. For the same compound, the GI50 (KM12 colon) was > 100 µM, the TGI (KM12 colon) was > 100 µM and the GI50 (LOX IMVI melanoma) was > 100 µM. The TGI (LOX IMVI melanoma) was > 100 µM, the GI50 (M14 melanoma) was > 100 µM and the TGI (M14 melanoma) was > 100 µM. The GI50 (MALME-3M melanoma) was > 100 µM, the TGI (MALME-3M melanoma) was > 100 µM and the GI50 (MCF7 breast) was 35.2 µM. The TGI (MCF7 breast) was > 100 µM, the GI50 (MDA-MB-231 breast) was 48.2 µM and the TGI (MDA-MB-231 breast) was > 100 µM. For the same compound, the GI50 (MDA-MB-435) was > 100 µM, the TGI (MDA-MB-435) was > 100 µM and the GI50 (MOLT-4 leukemia) was > 100 µM. For the same compound, the TGI (MOLT-4 leukemia) was > 100 µM, the GI50 (NCI-H226 lung) was > 100 µM and the TGI (NCI-H226 lung) was > 100 µM. For the same compound, the GI50 (NCI-H23 lung) was > 100 µM, the TGI (NCI-H23 lung) was > 100 µM and the GI50 (NCI-H460 lung) was > 100 µM. The TGI (NCI-H460 lung) was > 100 µM, the GI50 (NCI-H522 lung) was > 100 µM and the TGI (NCI-H522 lung) was > 100 µM. For the same compound, the GI50 (NCI/ADR-RES ovarian) was > 100 µM, the TGI (NCI/ADR-RES ovarian) was > 100 µM and the GI50 (OVCAR-3 ovarian) was > 100 µM. For the same compound, the TGI (OVCAR-3 ovarian) was > 100 µM, the GI50 (OVCAR-4 ovarian) was > 100 µM and the TGI (OVCAR-4 ovarian) was > 100 µM. The GI50 (OVCAR-5 ovarian) was > 100 µM, the TGI (OVCAR-5 ovarian) was > 100 µM and the GI50 (OVCAR-8 ovarian) was > 100 µM. For the same compound, the TGI (OVCAR-8 ovarian) was > 100 µM, the GI50 (PC-3 prostate) was > 100 µM and the TGI (PC-3 prostate) was > 100 µM. For the same compound, the GI50 (RPMI-8226 leukemia) was > 100 µM, the TGI (RPMI-8226 leukemia) was > 100 µM and the GI50 (RXF 393 renal) was 57.2 µM. The TGI (RXF 393 renal) was > 100 µM, the GI50 (SF-268 CNS) was > 100 µM and the TGI (SF-268 CNS) was > 100 µM. The GI50 (SF-539 CNS) was > 100 µM, the TGI (SF-539 CNS) was > 100 µM and the GI50 (SK-MEL-2 melanoma) was > 100 µM. For the same compound, the TGI (SK-MEL-2 melanoma) was > 100 µM, the GI50 (SK-MEL-28 melanoma) was > 100 µM and the TGI (SK-MEL-28 melanoma) was > 100 µM. For the same compound, the GI50 (SK-MEL-5 melanoma) was > 100 µM, the TGI (SK-MEL-5 melanoma) was > 100 µM and the GI50 (SK-OV-3 ovarian) was > 100 µM. The TGI (SK-OV-3 ovarian) was > 100 µM, the GI50 (SN12C renal) was > 100 µM and the TGI (SN12C renal) was > 100 µM. For the same compound, the GI50 (SNB-19 CNS) was > 100 µM, the TGI (SNB-19 CNS) was > 100 µM and the GI50 (SNB-75 CNS) was 26.7 µM. The TGI (SNB-75 CNS) was > 100 µM, the GI50 (SR leukemia) was 87.5 µM and the TGI (SR leukemia) was > 100 µM. For the same compound, the GI50 (SW-620 colon) was > 100 µM, the TGI (SW-620 colon) was > 100 µM and the GI50 (T-47D breast) was > 100 µM. For the same compound, the TGI (T-47D breast) was > 100 µM, the GI50 (TK-10 renal) was 65.6 µM and the TGI (TK-10 renal) was > 100 µM. For the same compound, the GI50 (UACC-62 melanoma) was > 100 µM, the TGI (UACC-62 melanoma) was > 100 µM and the GI50 (UO-31 renal) was > 100 µM. For the same compound, the TGI (UO-31 renal) was > 100 µM.
